Legend:
[1] = target: Androgen receptor (Homo sapiens) (UniProt P10275); assay: ANDROGEN/H Cerep selectivity data (BI); conditions: Compound concentration 20.0 uM
[2] = target: Vasoactive intestinal polypeptide receptor 1 (Homo sapiens) (UniProt P32241); assay: VIP1/VPAC1/H Cerep selectivity data (BI); conditions: Compound concentration 20.0 uM
[3] = target: Neuropeptide Y receptor type 1 (Homo sapiens) (UniProt P25929); assay: Y1/HUM Cerep selectivity data (BI); conditions: filed as antagonist, Compound concentration 20.0 uM
Sequence of Neuropeptide Y receptor type 1 (Homo sapiens) (P25929 whole entry): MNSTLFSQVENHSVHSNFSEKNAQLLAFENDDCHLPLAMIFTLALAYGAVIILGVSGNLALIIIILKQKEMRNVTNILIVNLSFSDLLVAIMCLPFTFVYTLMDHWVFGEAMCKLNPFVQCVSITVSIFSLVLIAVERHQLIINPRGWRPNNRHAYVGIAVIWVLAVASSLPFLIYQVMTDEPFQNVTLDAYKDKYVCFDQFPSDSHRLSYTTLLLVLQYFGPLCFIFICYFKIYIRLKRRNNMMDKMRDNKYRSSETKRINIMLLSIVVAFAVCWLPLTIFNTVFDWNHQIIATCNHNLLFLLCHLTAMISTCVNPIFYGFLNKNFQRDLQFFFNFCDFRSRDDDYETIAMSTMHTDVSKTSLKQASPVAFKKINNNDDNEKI

[4] = target: Neuropeptide Y receptor type 2 (Homo sapiens) (UniProt P49146); assay: Y2/HU Eurofins-Panlabs selectivity data (BI); conditions: Compound concentration 10.0 uM
Sequence of Neuropeptide Y receptor type 2 (Homo sapiens) (P49146 whole entry): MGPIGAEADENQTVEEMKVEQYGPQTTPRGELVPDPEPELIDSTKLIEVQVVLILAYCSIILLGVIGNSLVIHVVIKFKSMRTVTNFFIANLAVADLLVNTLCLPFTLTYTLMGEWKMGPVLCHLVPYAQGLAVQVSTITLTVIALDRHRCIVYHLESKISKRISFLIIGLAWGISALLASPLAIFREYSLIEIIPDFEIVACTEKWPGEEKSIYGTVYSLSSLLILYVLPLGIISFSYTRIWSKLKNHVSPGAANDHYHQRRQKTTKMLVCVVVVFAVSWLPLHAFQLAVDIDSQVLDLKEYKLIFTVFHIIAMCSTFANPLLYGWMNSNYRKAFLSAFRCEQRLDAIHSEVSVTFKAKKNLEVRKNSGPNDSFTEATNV

[5] = target: Calcium/calmodulin-dependent protein kinase type 1D (Homo sapiens) (UniProt Q8IU85); assay: CAMK1D Invitrogen selectivity data (BI); conditions: Compound concentration 3.0 uM
Sequence of Calcium/calmodulin-dependent protein kinase type 1D (Homo sapiens) (Q8IU85 whole entry, looked up): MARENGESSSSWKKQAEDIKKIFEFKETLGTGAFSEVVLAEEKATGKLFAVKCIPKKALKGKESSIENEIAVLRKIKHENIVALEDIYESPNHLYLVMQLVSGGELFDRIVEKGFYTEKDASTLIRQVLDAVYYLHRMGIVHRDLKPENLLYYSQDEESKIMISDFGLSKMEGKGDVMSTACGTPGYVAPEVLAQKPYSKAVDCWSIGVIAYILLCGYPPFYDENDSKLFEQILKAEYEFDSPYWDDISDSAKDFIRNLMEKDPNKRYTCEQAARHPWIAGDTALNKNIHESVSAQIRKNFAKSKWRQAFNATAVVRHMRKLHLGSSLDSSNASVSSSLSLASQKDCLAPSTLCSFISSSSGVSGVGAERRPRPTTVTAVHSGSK

[6] = target: T1, Inhibitor of nuclear factor kappa-B kinase subunit alpha (Homo sapiens) (UniProt O15111); assay: CHUK_IKKA Invitrogen selectivity data (BI); conditions: Compound concentration 3.0 uM
T1 sequence (whole entry): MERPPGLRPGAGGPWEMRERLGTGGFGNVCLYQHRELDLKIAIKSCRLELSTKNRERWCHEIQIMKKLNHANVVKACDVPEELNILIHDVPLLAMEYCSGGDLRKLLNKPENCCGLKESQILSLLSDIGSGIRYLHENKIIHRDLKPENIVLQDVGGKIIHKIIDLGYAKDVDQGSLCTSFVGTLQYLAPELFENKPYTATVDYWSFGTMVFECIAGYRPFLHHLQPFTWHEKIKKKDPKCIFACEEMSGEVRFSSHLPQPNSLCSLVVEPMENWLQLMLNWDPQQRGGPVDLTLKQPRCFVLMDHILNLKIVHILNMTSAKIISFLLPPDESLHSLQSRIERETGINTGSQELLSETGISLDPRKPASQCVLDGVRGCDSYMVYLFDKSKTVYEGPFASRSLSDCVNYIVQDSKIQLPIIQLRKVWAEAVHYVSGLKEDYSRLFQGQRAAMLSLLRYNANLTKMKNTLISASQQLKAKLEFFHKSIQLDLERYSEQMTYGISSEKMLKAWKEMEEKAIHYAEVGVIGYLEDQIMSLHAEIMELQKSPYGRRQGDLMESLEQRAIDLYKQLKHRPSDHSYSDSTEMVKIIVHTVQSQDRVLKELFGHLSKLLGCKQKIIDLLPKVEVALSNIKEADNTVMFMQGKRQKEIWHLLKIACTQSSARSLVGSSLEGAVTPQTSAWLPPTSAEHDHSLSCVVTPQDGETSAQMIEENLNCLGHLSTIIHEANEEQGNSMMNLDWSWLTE

[7] = target: Misshapen-like kinase 1 (Homo sapiens) (UniProt Q8N4C8); assay: MINK1 Invitrogen selectivity data (BI); conditions: Compound concentration 3.0 uM
Sequence of Misshapen-like kinase 1 (Homo sapiens) (Q8N4C8 whole entry, looked up): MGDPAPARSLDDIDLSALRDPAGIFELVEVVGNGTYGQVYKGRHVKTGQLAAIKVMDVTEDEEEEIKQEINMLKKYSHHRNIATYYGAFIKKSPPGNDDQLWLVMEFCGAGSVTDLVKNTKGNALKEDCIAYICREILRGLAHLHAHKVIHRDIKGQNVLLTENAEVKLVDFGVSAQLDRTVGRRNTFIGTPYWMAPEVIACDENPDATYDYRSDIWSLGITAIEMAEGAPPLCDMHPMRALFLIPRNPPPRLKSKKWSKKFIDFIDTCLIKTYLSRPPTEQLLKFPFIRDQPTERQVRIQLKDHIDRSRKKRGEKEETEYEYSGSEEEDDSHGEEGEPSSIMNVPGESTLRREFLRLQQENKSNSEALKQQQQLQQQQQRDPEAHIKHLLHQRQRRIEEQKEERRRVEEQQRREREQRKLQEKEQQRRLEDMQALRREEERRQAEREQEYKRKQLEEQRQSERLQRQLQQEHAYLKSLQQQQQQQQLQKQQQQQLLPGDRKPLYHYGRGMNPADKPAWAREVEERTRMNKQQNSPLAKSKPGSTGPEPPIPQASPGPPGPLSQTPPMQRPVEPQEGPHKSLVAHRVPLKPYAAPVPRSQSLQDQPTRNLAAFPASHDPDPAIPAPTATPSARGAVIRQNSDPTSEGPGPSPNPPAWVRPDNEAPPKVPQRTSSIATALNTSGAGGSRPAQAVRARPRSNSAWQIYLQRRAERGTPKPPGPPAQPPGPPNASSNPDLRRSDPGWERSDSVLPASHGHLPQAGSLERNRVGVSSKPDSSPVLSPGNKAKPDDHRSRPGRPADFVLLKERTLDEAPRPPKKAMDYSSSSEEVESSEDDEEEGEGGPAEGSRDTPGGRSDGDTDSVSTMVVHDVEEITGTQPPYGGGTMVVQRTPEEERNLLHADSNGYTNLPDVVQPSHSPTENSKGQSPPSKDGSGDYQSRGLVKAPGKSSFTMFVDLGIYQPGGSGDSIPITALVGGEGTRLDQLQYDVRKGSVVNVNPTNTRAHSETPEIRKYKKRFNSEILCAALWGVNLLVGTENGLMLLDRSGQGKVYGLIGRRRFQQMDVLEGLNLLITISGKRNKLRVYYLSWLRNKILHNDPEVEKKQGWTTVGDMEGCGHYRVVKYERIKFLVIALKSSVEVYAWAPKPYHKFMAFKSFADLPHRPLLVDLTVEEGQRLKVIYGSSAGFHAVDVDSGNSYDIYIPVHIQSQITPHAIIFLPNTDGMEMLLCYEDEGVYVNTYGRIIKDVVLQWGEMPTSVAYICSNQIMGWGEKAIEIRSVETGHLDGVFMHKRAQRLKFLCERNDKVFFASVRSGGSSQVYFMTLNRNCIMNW

[8] = target: T2, Serine/threonine-protein kinase D3 (Homo sapiens) (UniProt O94806); assay: PRKCN Invitrogen selectivity data (BI); conditions: Compound concentration 3.0 uM
T2 sequence (whole entry): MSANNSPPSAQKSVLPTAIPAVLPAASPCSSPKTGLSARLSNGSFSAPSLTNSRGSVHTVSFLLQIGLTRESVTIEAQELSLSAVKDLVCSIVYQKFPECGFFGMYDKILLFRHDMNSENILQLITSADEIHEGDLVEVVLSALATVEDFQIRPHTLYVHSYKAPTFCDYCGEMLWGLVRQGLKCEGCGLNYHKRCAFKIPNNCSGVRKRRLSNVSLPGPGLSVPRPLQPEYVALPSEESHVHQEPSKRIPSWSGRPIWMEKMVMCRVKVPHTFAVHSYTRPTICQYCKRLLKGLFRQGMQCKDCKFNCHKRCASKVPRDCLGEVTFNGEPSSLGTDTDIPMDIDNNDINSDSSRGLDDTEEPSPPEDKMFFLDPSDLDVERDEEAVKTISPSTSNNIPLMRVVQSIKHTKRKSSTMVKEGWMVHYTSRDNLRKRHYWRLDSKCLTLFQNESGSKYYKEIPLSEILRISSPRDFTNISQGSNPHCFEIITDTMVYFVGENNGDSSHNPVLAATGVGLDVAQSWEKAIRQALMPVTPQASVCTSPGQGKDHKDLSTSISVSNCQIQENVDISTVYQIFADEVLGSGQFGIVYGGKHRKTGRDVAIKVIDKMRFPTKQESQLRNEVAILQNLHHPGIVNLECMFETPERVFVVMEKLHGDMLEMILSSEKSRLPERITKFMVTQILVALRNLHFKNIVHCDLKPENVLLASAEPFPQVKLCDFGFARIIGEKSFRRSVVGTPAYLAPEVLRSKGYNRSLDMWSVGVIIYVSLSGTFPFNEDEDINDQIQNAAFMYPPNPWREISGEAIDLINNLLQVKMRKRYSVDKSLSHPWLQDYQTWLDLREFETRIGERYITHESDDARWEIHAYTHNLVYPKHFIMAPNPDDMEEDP

[9] = target: T3, Muscarinic acetylcholine receptor M1 (Homo sapiens) (UniProt P11229); conditions: Compound concentration 10.0 uM
T3 sequence (whole entry): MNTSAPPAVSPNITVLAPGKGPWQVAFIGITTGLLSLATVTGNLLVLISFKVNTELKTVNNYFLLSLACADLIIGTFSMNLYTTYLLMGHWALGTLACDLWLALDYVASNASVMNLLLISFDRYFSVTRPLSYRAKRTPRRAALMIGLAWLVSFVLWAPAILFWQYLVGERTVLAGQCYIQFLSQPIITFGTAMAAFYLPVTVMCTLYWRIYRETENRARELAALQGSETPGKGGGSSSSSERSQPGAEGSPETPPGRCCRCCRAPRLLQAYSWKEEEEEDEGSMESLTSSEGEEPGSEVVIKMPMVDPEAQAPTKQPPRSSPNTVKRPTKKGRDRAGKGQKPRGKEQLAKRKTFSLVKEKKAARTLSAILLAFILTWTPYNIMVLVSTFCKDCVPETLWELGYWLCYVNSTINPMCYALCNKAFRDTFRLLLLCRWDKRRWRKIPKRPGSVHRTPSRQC

Sequence of Androgen receptor (Homo sapiens) (P10275 whole entry): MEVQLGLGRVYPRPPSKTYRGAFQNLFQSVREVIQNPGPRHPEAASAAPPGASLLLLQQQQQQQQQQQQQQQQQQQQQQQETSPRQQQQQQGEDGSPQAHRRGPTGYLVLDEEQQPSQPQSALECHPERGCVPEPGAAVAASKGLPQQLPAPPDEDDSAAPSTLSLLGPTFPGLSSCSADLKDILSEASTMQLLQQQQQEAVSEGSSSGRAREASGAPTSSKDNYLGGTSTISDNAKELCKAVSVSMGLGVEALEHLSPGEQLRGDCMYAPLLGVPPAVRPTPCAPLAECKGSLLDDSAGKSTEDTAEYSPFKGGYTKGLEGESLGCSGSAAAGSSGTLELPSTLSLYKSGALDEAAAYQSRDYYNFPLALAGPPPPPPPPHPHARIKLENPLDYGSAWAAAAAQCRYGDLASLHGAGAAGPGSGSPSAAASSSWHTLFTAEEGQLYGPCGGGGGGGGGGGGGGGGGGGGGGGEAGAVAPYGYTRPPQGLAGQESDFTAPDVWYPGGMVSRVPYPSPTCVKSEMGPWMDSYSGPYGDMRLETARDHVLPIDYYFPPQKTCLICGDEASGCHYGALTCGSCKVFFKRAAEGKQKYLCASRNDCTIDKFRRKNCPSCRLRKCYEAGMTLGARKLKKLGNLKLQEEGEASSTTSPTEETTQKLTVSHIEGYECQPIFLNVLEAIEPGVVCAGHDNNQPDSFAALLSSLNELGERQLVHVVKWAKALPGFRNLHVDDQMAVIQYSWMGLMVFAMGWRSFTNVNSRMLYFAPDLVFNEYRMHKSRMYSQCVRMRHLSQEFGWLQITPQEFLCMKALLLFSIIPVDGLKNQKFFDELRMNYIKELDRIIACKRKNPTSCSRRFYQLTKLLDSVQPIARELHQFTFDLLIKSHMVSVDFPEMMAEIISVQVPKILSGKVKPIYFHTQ
Sequence of Vasoactive intestinal polypeptide receptor 1 (Homo sapiens) (P32241 whole entry): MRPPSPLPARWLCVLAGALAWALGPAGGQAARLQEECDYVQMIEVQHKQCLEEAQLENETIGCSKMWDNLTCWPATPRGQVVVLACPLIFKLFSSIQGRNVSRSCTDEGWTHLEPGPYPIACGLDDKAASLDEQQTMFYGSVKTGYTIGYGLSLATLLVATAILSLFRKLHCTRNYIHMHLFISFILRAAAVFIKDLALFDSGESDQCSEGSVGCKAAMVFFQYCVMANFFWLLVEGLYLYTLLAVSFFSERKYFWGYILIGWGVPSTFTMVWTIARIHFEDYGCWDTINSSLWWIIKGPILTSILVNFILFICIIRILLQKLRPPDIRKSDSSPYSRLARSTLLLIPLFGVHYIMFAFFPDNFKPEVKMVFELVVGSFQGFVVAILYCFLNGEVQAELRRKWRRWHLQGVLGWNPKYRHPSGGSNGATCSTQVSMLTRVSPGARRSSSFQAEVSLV

CN(C)C(=O)Cn1cc(-c2nc([C@@](C)(c3ccc(-c4cnc(N)nc4)cc3)C3CC3)no2)cn1 [BI 665915]
inactive: residual activity [1] 102% | residual activity [2] 109% | residual activity [3] 104% | residual activity [4] 97% | residual activity [5] 96% | residual activity [6] 99.5% | residual activity [7] 93% | residual activity [8] 94.5% | inhibition [9] -4.93%
